According to patent US12600709B2, “Nonpeptide somatostatin type 5 receptor agonists and uses thereof” (Crinetics Pharmaceuticals, Inc., priority 2019, dated 2026):
Like-named read-outs stand apart in the source and are kept apart here.

Columns and labels:
[1] = target: T1, human somatostatin receptor subtype 2 (Homo sapiens, UniProt P30874); assay: cAMP assay for SST2R (inhibition of cAMP in CHO-K1 cells); assay type: cell-based; details: Table B; inhibition of cAMP via human SST2 receptor; read-out: SST2 potency
T1 construct: expressed in transfected cells
Summary of the method: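 Agonism read as decrease in NKH477 (1.6 μM)-stimulated cAMP: compounds applied 20 min, 37° C, with 0.2 mM IBMX, to CHO-K1 stably expressing human SSTR2. cAMP quantified in lysates by time-resolved fluorescence (HTRF kit, 1-24 h RT), standard-curve regression, then EC50.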

[2] = target: T2, human somatostatin receptor subtype 5 (Homo sapiens, UniProt P35346); assay: cAMP assay for SST5R (inhibition of cAMP in CHO-K1 cells); assay type: cell-based; details: for EC50: inhibition of cAMP via human SST5 receptor, read-out: SST5 potency; for Fold selectivity for SST5 vs SST2: class symbols, SST5 receptor over SST2 receptor
T2 construct: expressed in transfected cells
Summary of the method: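 CHO-K1 cells stably expressing human SSTR5 were treated 20 min at 37 °C with compounds plus 1.6 μM NKH477 in HBSS, 0.5 mM HEPES pH 7.4, 0.1% BSA, 0.2 mM IBMX. Lysate cAMP measured by HTRF against a standard curve; EC50 from cAMP-versus-concentration plots.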

T2 sequence (P35346 whole entry): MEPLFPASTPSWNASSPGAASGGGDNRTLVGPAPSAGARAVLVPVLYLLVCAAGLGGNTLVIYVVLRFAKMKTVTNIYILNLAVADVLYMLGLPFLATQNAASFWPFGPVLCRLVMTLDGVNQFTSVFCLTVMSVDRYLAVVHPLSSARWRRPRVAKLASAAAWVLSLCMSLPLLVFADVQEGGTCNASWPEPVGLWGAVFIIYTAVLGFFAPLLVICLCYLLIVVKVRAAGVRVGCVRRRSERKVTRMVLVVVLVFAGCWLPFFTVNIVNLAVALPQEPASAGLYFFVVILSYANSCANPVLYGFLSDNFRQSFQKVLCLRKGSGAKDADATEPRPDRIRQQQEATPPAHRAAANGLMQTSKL
T1 sequence (P30874 whole entry): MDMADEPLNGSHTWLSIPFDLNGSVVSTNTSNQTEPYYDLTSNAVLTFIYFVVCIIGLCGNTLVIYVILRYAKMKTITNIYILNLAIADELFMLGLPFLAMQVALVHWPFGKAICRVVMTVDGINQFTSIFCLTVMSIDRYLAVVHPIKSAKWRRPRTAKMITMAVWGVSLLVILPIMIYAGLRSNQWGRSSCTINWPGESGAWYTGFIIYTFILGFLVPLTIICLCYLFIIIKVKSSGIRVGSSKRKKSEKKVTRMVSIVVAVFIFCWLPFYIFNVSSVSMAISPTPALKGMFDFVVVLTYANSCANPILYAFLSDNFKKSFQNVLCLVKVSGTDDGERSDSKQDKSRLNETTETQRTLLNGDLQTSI

| Structure (SMILES) | EC50 [1] [nM] | EC50 ([2]; Table A) [nM] | Fold selectivity for SST5 vs SST2 ([2]; Table B) | EC50 ([2]; Table B) [nM] |
| --- | --- | --- | --- | --- |
| COc1ncc(C(=O)N[C@@H](C)C(F)(F)F)c(N2CC[C@H](N)C2)c1-c1cc(F)cc(Cl)c1 [1-283, 4-[(3S)-3-aminopyrrolidin-1-yl]-5-(3-chloro-5-fluorophenyl)-6-methoxy-N-[(2S)-1,1,1-trifluoropropan-2-yl]pyridine-3-carboxamide] | 100 to 1000 | < 10 | +++ (+++=>500) | < 10 |
| Cc1ncc(C(=O)N[C@@H](C)C2CC2)c(N2CC[C@](C)(N)C2)c1-c1ccc(F)c(Cl)c1 [1-289, 4-[(3S)-3-amino-3-methylpyrrolidin-1-yl]-5-(3-chloro-4-fluorophenyl)-N-[(1S)-1-cyclopropylethyl]-6-methylpyridine-3-carboxamide] | 100 to 1000 | < 10 | +++ (+++=>500) | < 10 |
| Cc1ncc(C(=O)N[C@@H](C)C2CC2)c(N2CC[C@](C)(N)C2)c1-c1cncc(F)c1 [1-160, 4-[(3S)-3-amino-3-methylpyrrolidin-1-yl]-N-[(1S)-1-cyclopropylethyl]-5′-fluoro-2-methyl-[3,3′-bipyridine]-5-carboxamide] | 100 to 1000 | < 10 | +++ (+++=>500) | < 10 |
| COc1ncc(C(=O)N[C@@H](C)C(F)(F)F)c(N2CC[C@](C)(N)C2)c1-c1cccc2c1OC(F)(F)O2 [1-184, 4-[(3S)-3-amino-3-methylpyrrolidin-1-yl]-5-(2,2-difluoro-2H-1,3-benzodioxol-4-yl)-6-methoxy-N-[(2S)-1,1,1-trifluoropropan-2-yl]pyridine-3-carboxamide] | 100 to 1000 | < 10 | +++ (+++=>500) | < 10 |
| C[C@]1(N)CCN(c2c(C(=O)NC3CCC(F)(F)CC3)cncc2-c2cc(F)cc(F)c2)C1 [1-16, 4-[(3S)-3-amino-3-methylpyrrolidin-1-yl]-N-(4,4-difluorocyclohexyl)-5-(3,5-difluorophenyl)pyridine-3-carboxamide] | 100 to 1000 | < 10 | +++ (+++=>500) | < 10 |
| Cc1ncc(C(=O)N[C@@H](C)C(F)(F)F)c(N2CC[C@](C)(N)C2)c1-c1cc(F)cc(OC(F)F)c1 [1-171, 4-[(3S)-3-amino-3-methylpyrrolidin-1-yl]-5-[3-(difluoromethoxy)-5-fluorophenyl]-6-methyl-N-[(2S)-1,1,1-trifluoropropan-2-yl]pyridine-3-carboxamide] | 10 to 100 | < 10 | +++ (+++=>500) | < 10 |
| N#Cc1ncc(C(=O)NC23CC(C2)C3)c(N2CC[C@@](N)(CO)C2)c1-c1cc(F)cc(F)c1 [1-98, 4-[(3S)-3-amino-3-(hydroxymethyl)pyrrolidin-1-yl]-N-{bicyclo[1.1.1]pentan-1-yl}-6-cyano-5-(3,5-difluorophenyl)pyridine-3-carboxamide] | 100 to 1000 | < 10 | ++ (++=100 to 499) | < 10 |
| C[C@]1(N)CCN(c2c(C(=O)NCc3ccon3)cnc(C#N)c2-c2cc(F)cc(F)c2)C1 [1-114, 4-[(3S)-3-amino-3-methylpyrrolidin-1-yl]-6-cyano-5-(3,5-difluorophenyl)-N-[(1,2-oxazol-3-yl)methyl]pyridine-3-carboxamide] | > 1000 | < 10 | +++ (+++=>500) | < 10 |
| C[C@]1(N)CCN(c2c(C(=O)NC34CC(C3)C4)cncc2-c2cc(F)cc(F)c2)C1 [1-21, 4-[(3S)-3-amino-3-methylpyrrolidin-1-yl]-N-{bicyclo[1.1.1]pentan-1-yl}-5-(3,5-difluorophenyl)pyridine-3-carboxamide] | 10 to 100 | < 10 | ++ (++=100 to 499) | < 10 |
| Cc1ncc(C(=O)NC2CC(F)(F)C2)c(N2CC[C@](C)(N)C2)c1-c1cc(F)cc(OC(F)F)c1 [1-172, 4-[(3S)-3-amino-3-methylpyrrolidin-1-yl]-N-(3,3-difluorocyclobutyl)-5-[3-(difluoromethoxy)-5-fluorophenyl]-6-methylpyridine-3-carboxamide] | 100 to 1000 | < 10 | +++ (+++=>500) | < 10 |
| COc1ncc(C(=O)N[C@@H](C)C2CC2)c(N2CC[C@](C)(N)C2)c1-c1cncc(Cl)c1 [1-167, 4-[(3S)-3-amino-3-methylpyrrolidin-1-yl]-5′-chloro-N-[(1S)-1-cyclopropylethyl]-2-methoxy-[3,3′-bipyridine]-5-carboxamide] | > 1000 | < 10 | +++ (+++=>500) | < 10 |
| N#Cc1ncc(C(=O)NC(C2CC2)C2CC2)c(N2CC[C@H](N)C2)c1-c1cc(F)cc(F)c1 [1-70, 4-[(3S)-3-aminopyrrolidin-1-yl]-6-cyano-N-(dicyclopropylmethyl)-5-(3,5-difluorophenyl)pyridine-3-carboxamide] | > 1000 | < 10 | +++ (+++=>500) | < 10 |
| C[C@]1(N)CCN(c2c(C(=O)NC34CC(F)(C3)C4)cnc(C(F)(F)F)c2-c2cc(F)cc(F)c2)C1 [1-217, 4-[(3S)-3-amino-3-methylpyrrolidin-1-yl]-5-(3,5-difluorophenyl)-N-{3-fluorobicyclo[1.1.1]pentan-1-yl}-6-(trifluoromethyl)pyridine-3-carboxamide] | 100 to 1000 | < 10 | +++ (+++=>500) | < 10 |
| Cc1ncc(C(=O)N[C@@H](C)C2CC2)c(N2CC[C@](C)(N)C2)c1-c1cc(F)cc(OC(F)F)c1 [1-173, 4-[(3S)-3-amino-3-methylpyrrolidin-1-yl]-N-[(1S)-1-cyclopropylethyl]-5-[3-(difluoromethoxy)-5-fluorophenyl]-6-methylpyridine-3-carboxamide] | 100 to 1000 | < 10 | ++ (++=100 to 499) | < 10 |
| N#Cc1ncc(C(=O)NC2CCC(F)(F)CC2)c(N2CC[C@H](N)C2)c1-c1cc(F)cc(F)c1 [1-67, 4-[(3S)-3-aminopyrrolidin-1-yl]-6-cyano-N-(4,4-difluorocyclohexyl)-5-(3,5-difluorophenyl)pyridine-3-carboxamide] | > 1000 | < 10 | +++ (+++=>500) | < 10 |
| C[C@]1(N)CCN(c2c(C(=O)NC3CC(F)(F)C3)cnc(C#N)c2-c2cc(F)cc(F)c2)C1 [1-79, 4-[(3S)-3-amino-3-methylpyrrolidin-1-yl]-6-cyano-N-(3,3-difluorocyclobutyl)-5-(3,5-difluorophenyl)pyridine-3-carboxamide] | 100 to 1000 | < 10 | +++ (+++=>500) | < 10 |
| Cc1ncc(C(=O)NC2CCCC2)c(N2CC[C@](C)(N)C2)c1-c1ccnc(C(F)(F)F)c1 [1-258, 4-[(3S)-3-amino-3-methylpyrrolidin-1-yl]-N-cyclopentyl-2-methyl-2′-(trifluoromethyl)-[3,4′-bipyridine]-5-carboxamide] | > 1000 | < 10 | +++ (+++=>500) | < 10 |
